Data reported in patent US6617282B2, “Processes for preparing 3-phenyl-2,4(1H, 3H)-pyrimidinediones” (Ishihara Sangyo Kaisha, Ltd., priority 2001, dated 2003).

Tests used:
Experiment in all cases: PRE emergent soil treatment, weed control
Assay type in all cases: in vivo
Conditions in all cases: applied to soil, 250 g/ha
[1] = system: lambsquarters (Chenopodium album)
Text: (§1) Compound B was applied to soil as a PRE emergent treatment at the rate of 250 g/ha. The broadleaf weed species velvetleaf (Abutilon theophrasti), redroot pigweed (Amaranthus retroflexus) and lambsquarters (Chenopodium album) were all 100% controlled by this treatment.

[2] = system: redroot pigweed (Amaranthus retroflexus)
Text: as §1

[3] = system: velvetleaf (Abutilon theophrasti)
Text: as §1

Measured: controlled (weed control)

CC(C)=Nn1c(C(F)(F)F)cc(=O)n(-c2cc(Oc3ccccc3[N+](=O)[O-])c(Cl)cc2F)c1=O [Compound B, 3-[4-hloro-2-fluoro-5-(2-nitrophenoxy)phenyl]-1-[(1-methylethylidene)amino]-6-(trifluoromethyl)-2,4(1H,3H)-pyrimidinedione]
100%: all assays above
